From ChEMBL document CHEMBL1275309, “Exploring new inhibitors of Plasmodium falciparum purine nucleoside phosphorylase” (Eur J Med Chem, 2010) come the findings set out here.

The target of experiment [1] is T1, Purine nucleoside phosphorylase (Homo sapiens, UniProt P00491).
T1 sequence (P00491 whole entry): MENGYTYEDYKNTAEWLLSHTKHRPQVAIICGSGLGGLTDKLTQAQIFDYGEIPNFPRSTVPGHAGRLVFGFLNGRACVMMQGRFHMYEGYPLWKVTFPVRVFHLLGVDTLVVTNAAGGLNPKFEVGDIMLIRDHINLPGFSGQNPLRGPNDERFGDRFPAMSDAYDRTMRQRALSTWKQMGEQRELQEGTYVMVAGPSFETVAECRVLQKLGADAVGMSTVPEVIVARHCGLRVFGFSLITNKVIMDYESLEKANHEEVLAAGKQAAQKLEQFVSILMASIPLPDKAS
The experiment can be described thus: Inhibition of human PNP.

Experiment [2] has as its target T2, Purine nucleoside phosphorylase (Plasmodium falciparum, UniProt Q8T9Z7).
T2 sequence (Q8T9Z7 whole entry): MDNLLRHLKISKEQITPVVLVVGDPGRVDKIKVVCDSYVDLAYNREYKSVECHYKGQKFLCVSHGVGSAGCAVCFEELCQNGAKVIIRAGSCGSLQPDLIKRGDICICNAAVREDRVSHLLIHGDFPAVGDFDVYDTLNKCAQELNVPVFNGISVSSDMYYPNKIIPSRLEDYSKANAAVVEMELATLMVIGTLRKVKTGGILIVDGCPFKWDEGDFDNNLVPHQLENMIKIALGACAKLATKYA
The experiment in a line: Inhibition of Plasmodium falciparum PNP expressed in Escherichia coli BL21(DE3) cells by spectrophotometry.

A further experiment has as its system Plasmodium falciparum. The experiment in a line: Antiplasmodial activity against erythrocytic stages of Plasmodium falciparum 3D7 after 48 hrs by SYBR green assay. Type of experiment: functional, organism-based. To be noted: 3D7, 48 h.
For a further experiment, the target named is Uridine phosphorylase 1 (Homo sapiens, UniProt Q16831). The experiment can be described thus: Inhibition of human uridine phosphorylase.
Uridine phosphorylase 1, sequence (Q16831 whole entry): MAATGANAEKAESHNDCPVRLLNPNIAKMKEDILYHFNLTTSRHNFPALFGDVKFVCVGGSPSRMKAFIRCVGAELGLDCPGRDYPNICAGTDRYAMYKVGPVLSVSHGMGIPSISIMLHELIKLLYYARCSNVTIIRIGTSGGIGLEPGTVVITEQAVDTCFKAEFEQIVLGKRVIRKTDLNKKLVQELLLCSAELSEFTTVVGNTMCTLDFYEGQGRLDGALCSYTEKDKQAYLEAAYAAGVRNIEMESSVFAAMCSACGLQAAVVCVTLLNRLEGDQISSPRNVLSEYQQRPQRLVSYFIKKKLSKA

SMILES strings stand for the structures.

For `O=c1[nH]cnc2c(CN3CCCC3)c[nH]c12`, the Kd in experiment [1] was found to be 0.0055 µM.

In turn, `O=C1NC(=O)C(Cc2ccccc2)C(=O)N1` had a concentration for half-maximal inhibition (IC50) in experiment [2] greater than 1000 µM.

As to `O=c1ccn(CCN2CCCC2)c(=O)[nH]1`, in experiment [2], the IC50 was 141 µM and affinity was put at a Ki of 27 µM. The compound further showed an EC50 in the experiment with Plasmodium falciparum greater than 500 µM.

Consider `O=c1ccn(CCCN2CCCC2)c(=O)[nH]1`, for which, in experiment [2], the IC50 came out at 230 µM and the affinity corresponds to a Ki of 59 µM. The EC50 in the experiment on Plasmodium falciparum is greater than 1000 µM.

In experiment [2], `O=c1ccn(CCCN2CCC[C@H]2CO)c(=O)[nH]1` yielded an IC50 of 712 µM and a Ki of 136 µM. In addition, in the experiment with Plasmodium falciparum, the EC50 amounted to 375 µM.

In experiment [2], `O=c1ccn(CCCCN2CCCC2)c(=O)[nH]1` gave an IC50 of 524 µM and a Ki of 105 µM. This compound came in with an EC50 with Plasmodium falciparum greater than 1000 µM.

In experiment [2], `O=c1ccn(CCCCN2CCC[C@H]2CO)c(=O)[nH]1` yielded an IC50 of 592 µM and a Ki of 113 µM. The compound further showed an EC50 with Plasmodium falciparum greater than 1000 µM.

In experiment [2], `O=c1cc[nH]c(=O)n1CCN1CCCC1` had an IC50 of 42 µM and a Ki of 6 µM. Further, in the experiment on Plasmodium falciparum, the EC50 was greater than 500 µM.

In experiment [2], `O=c1cc[nH]c(=O)n1CCN1CCC[C@H]1CO` registered a half-maximal inhibitory concentration (IC50) of 366 µM and a Ki of 75 µM. For the same compound, in the experiment on Plasmodium falciparum, the EC50 is greater than 1000 µM.

In experiment [2], `O=C1NC(=O)N(COCCO)C(=O)C1Cc1cccc(OCc2ccccc2)c1` (stereo not drawn) came in with an IC50 greater than 1000 µM and a Ki of 0.0011 µM. The compound also showed an inhibition constant (Ki) on Uridine phosphorylase 1 of 0.0011 µM.

Compound `O=C1NC(=O)C(Cc2cccc(OCc3ccccc3)c2)C(=O)N1` registered an IC50 in experiment [2] greater than 1000 µM. This compound yielded a Ki on Uridine phosphorylase 1 of 2.3 µM.
